The target of series [1] is T1, TSPO (3H-R-PK11195 binding in J774 macrophages) (Mus musculus, UniProt P50637).
T1 construct: using a fixed number of live murine J774 macrophage-like cells; endogenous in cells; host or cells: J774 murine macrophage-like cell line (live cells)
Put plainly: IC50 determination: inhibition of [3H]PK11195 binding in live J774 macrophage-like cells. Further details: species or system murine. The note with it: fixed concentration of [3H]PK11195, FIG. 3. How it is done:
FIG. 3 is a graph showing the IC50 for inhibition of 3H-R-PK11195 binding in J774 macrophages by DPA713-IRDye680LT (nM).
The IC50 value determination was done by using a fixed number of live murine J774 macrophage-like cells and incubating increasing concentrations of DPA-713-IRDye against a fixed concentration of [^3H]PK11195. All reactions and washes (50 mM Tris, pH 7.4) are done using a Brandell Cell Harvester and the cells are counted in a scintillation counter with scintillent at the end. The cpm for each group is then plotted against the log of DPA-713-IRDye concentration and the data fitted to a sigmoidal curve. The 50% inhibition of [^3H]PK11195 binding is then determined and reported as the IC50 (FIG. 3).

Series [2] concerns LPS-stimulated J774 macrophages (TSPO). Kind of series: In vitro J774 murine macrophage uptake studies (fluorescence microscopy, with or without blocking). It is filed as cell-based. The protocol:
FIG. 4 is a series of photomicrographs (A-I) of J774 macrophages that were cultured in 8 well chamber slides to 80% confluence. LPS was then added to each well for 24 hours to stimulate the cells. […] The cells were returned to the incubator for either 1 hour or 24 hours. The solutions were then removed, the nuclei were labeled with Hoechst 33342 and the cells were briefly washed before mounting and viewing under a fluorescence microscope.
In vitro J774 murine macrophage uptake studies. The immortalized J774 murine macrophage-like cell line was cultured in RPMI1640+20% FBS+1% penicillin+ streptomycin media in 8-well chamber slides (Fisher Scientific) to approximately 80% confluence. The cells were then stimulated with 1 ng/mL of LPS (Sigma, E. coli 055:B5) for 24 hours prior to addition of the probes of the present invention to 40 nM final concentration. […] The cells were exposed to the fluorescent probes and blocking compounds for either 1 hour or 24 hours prior to exposing to 1 ng/mL of Hoechst 33342 dye (Invitrogen), followed by washing twice briefly with PBS, pH 7.5. The chambers were then removed and the slide mounted with Dako Cytomation aqueous mounting media and a glass coverslip. The cells were visualized using a Nikon 80i upright epifluorescence microscope equipped with a Nikon DS-QilMc darkfield CCD camera and processed using Nikon Image Software on an adjacent workstation. The dyes were excited using either a Nikon Intensilight C-HGFI lamp (IRDye680 and Hoechst) or a Sutter Instruments Co. (Novato, Calif.) LB/LB-30 xenon lamp (IRDye800).
J774 Cell Uptake Studies. J774 macrophages were cultured in 8 well chamber slides to 80% confluence. LPS was then added to each well for 24 hours to stimulate the cells. […] The cells were returned to the incubator for either 1 hour or 24 hours. The solutions were then removed, the nuclei were labeled with Hoechst 33342 and the cells were briefly washed before mounting and viewing under a fluorescence microscope. […] The tracer localization for both analogs is perinuclear and granular in appearance and is consistent with the gross distribution pattern of TSPO expression in other mononuclear cell-derived lines.

For series [3], the system named is CD68+ macrophages in PC-3 PIP and PC-3 flu xenografts. Kind of series: Ex vivo fluorescence microscopy of PC-3 PIP and PC-3 flu xenografts. It counts as in vivo, mice. How it is done: FIG. 8 is a series of photomicrographs showing ex vivo fluorescence microscopy of DPA-713-IRDye680LT in PC-3 PIP and PC-3 flu xenografts at 24 hours post-injection. […] A & B. PIP tumor DPA-713-IRDye680LT only; C.
Ex vivo DPA-713-IRDye680LT microscopy. The mice used in the in vivo NIRF studies (PC-3 analog xenografts and MDA-MB-231 analog xenografts) were sacrificed at the end of their studies and their tumors were collected and frozen on dry ice for cryosectioning to 20 microns on charged glass slides (VWR). The sections were then probed with both anti-TSPO Ab (Novus Biologicals NBP1-45769, 1:70) labeled directly with Lissamine sulfonyl chloride (Aldrich) according to the known method and anti-CD68 Ab (Abcam ab53444, 1:40) and lastly with Hoechst 33342 (Invitrogen, 1 ng/mL). Both antibodies were added simultaneously in a 10% FBS in PBS solution applied directly to the freshly thawed sections and allowed to sit at room temperature for 1 hour. The sections were washed twice at room temperature for 5 minutes each with PBS prior to the addition of sheep-anti-rat-FITC (Abcam ab6848-1, 1:250) in PBS at room temperature for 30 minutes. The secondary antibody solution was removed and the slides were bathed in Hoechst solution (PBS) for 1.5 minutes at room temperature before being washed twice as before with PBS. The slides were then mounted in Dako Cytomation aqueous mounting media with a glass coverslip and viewed 30 minutes later using a Nikon 80i upright epifluorescence microscope equipped with a Nikon DS-QilMc darkfield CCD camera and excited by a Nikon Intensilight C-HGFI lamp. All images are recorded and processed using Nikon Imaging Software Elements.
FIG. 9 depicts a series of NIRF image showing in vivo, ex vivo and in vitro binding of DPA-713-IRDye800CW to androgen sensitive (TSPO−) LNCaP (9E), androgen insensitive (TSPO+) PC-3 prostate xenografts and TSPO+ subcutaneous and orthotopic U87 GBM xenografts.

The results in this text go back to patent US9498546B2, “Synthesis and application of novel imaging agents conjugated to DPA 713 analogs for imaging inflammation” (THE JOHNS HOPKINS UNIVERSITY, priority 2012, dated 2016).

As to `CCN(CC)C(=O)Cc1c(-c2ccc(OCCNC(=O)CCCCc3cccc(C(=C\C=C4/N(CCCS(=O)(=O)O)c5ccc6c(S(=O)(=O)O)cc(S(=O)(=O)O)cc6c5C4(C)C)/C=C/C4=[N+](CCCS(=O)(=O)[O-])c5ccc6c(S(=O)(=O)O)cc(S(=O)(=O)O)cc6c5C4(C)C)c3)cc2)nn2c(C)cc(C)nc12` [DPA-713-IRDye680LT, 3-(2-((1E,3Z,5Z)-3-(3-(5-(2-(4-(3-(2-(diethylamino)-2-oxoethyl)-5,7-dimethylpyrazolo[1,5-a]pyrimidin-2-yl)phenoxy)ethylamino)-5-oxopentyl)phenyl)-5-(1,1-dimethyl-6,8-disulfo-3-(3-sulfopropyl)-1Hbenzo[e]indol-2(3H)-ylidene)penta-1,3-dienyl)-1,1-dimethyl-6,8-disulfo-1H-benzo[e]indolium-3-yl)propane-1-sulfonate], the IC50 – broadly, the point on the concentration scale where inhibition reaches its midpoint – in series [1] was around 325 nM. The “Blocking of tracer uptake by (R,S)-PK11195” value in series [2] (40 nM tracer + 1 μM (R,S)-PK11195, 24 hours) is listed as “no longer blocked”; in series [2] (40 nM tracer + 1 μM unlabeled (R,S)-PK11195, 1 hour) it was “widespread although incomplete blocking”. Also, the “Blocking of tracer uptake by unlabeled DPA-713” value in series [2] (40 nM tracer + 1 μM unlabeled DPA-713, 1 hour) is “partial but incomplete blocking”. Besides, the “Cell-specific accumulation of probe in prostate tumor xenografts” value in series [3] (24 hours of in vivo biodistribution) is recorded as “accumulated specifically within CD68+ macrophages”. For the same molecule, the “Probe accumulation, PC-3 PIP compared with PC-3 flu xenografts” value in series [3] (24 hours post-injection) is “PC-3 PIPs accumulate more”. For the same molecule, in series [3] (co-injection with 20 mg/kg unlabeled DPA-713, 24 hours post-injection), the “Blocking of probe accumulation by unlabeled DPA-713” value is “accumulation is blocked”.
